# Results from patent US10071164B2, “Estrogen-related receptor alpha based protac compounds and associated methods of use” (Yale University, priority 2014, dated 2018).
# Assays:
# [1] = target: estrogen related receptor alpha (ERRα) (Homo sapiens, UniProt P11474); conditions: FIG. 5
# From the text: [drawing 18] on the degradation of estrogen related receptor alpha (ERRα).
# [2] = target: T1, ERRα (Homo sapiens, UniProt P11474); assay: ERRα degradation in ST-486 cells; format: cell-based; set-up: degration of ERRα in either MCF-7 cells or ST-486 cells; endogenous in cells; host or cells: ST-486; conditions: ST486, column C, read-out: ERRα Degradation Dmax (Estimated) ST-486 cells
# T1 sequence (P11474 1-423): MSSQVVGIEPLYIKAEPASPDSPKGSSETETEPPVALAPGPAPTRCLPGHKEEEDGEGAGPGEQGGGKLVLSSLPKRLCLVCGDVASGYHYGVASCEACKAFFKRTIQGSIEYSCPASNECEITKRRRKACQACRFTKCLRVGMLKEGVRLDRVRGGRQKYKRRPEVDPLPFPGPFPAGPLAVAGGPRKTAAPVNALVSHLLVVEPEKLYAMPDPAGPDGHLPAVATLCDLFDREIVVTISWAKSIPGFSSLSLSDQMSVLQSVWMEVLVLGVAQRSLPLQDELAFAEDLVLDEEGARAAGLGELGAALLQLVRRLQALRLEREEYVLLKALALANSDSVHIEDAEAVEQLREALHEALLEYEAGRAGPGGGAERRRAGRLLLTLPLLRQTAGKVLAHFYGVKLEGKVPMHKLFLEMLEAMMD
# Procedure: Using the methods as described herein, the following exemplary PROTAC compounds were prepared (see Table below). The exemplary compounds were also assayed for their ability to effectuate the degration of ERRα in either MCF-7 cells or ST-486 cells. Thus, in certain embodiments, the description provides the compounds below, including compositions comprising effective amount of a compound as listed below or a derivative, analog, or a prodrug of the same, in combination with at least one of a pharmaceutically acceptable carrier, another active agent, including a second PROTAC molecule as described herein or a combination thereof. In additional embodiments, the disclosure provides a method of treating a disease or condition in a subject in need thereof, comprising administering a composition comprising an effective amount of a compound listed below, wherein the composition is effective for treating or ameliorating a symptom of the disease or condition.
# Legend for following table: A=ERRα Degradation Dmax (Estimated) MCF-7 cells; B=ERRα Degradation DC50 (Estimated) MCF-7 cells; C=ERRα Degradation Dmax (Estimated) ST-486 cells; D=ERRα Degradation DC50 (Estimated) ST-486 cells
# [3] = target: VHL (Homo sapiens, UniProt P40337); assay: VHL binding (stereocenter inversion); conditions: inversion of stereocenter(s) of the VHL ligand
# [4] = test system: THP-1 cells; assay: Trypan Blue cell viability assay; format: cell-based; conditions: 16 hours
# Procedure: FIG. 13 is a cell viability graph illustrating that PROTAC_RIPK2 is not toxic to cells. THP-1 cells were treated with the indicated concentration sof PROTAC_RIPK2 or PROTAC_RIPK2_epi for 16 hours, followed by a Trypan Blue assay to determine cell viability. Error bars represent mean and S.D.
# [5] = target: RIPK2 (Homo sapiens, UniProt O43353); assay: In vitro RIPK2 ubiquitination, reconstituted ubiquitination cascade; format: biochemical; conditions: quenched 15 min after initiation, PAGE and autoradiography
# Procedure: Ubiquitination reactions were performed in three stages. In the first stage, RIPK2 (final 500 nM) was incubated for 10 min at room temperature with [^32P]g-ATP in kinase buffer (25 mM Tris pH 7.5, 50 mM KCl, 2 mM Mg(CH3CO2)2, 2 mM MnCl2, 2 mM DTT) to radiolabel RIPK2 through auto-phosphorylation. In the second stage, ubiquitination buffer (25 mM Tris pH 7.5, 5 mM MgCl2, 100 mM NaCl, 2 mM ATP, 0.1 mg/ml BSA, and 2 mM DTT) was added to complete auto-phosphorylation, and then VHL (final 250 nM) and indicated PROTACs (various concentrations) were added to the mixture to allow ternary complex formation. In parallel, UbE1 (final 25 nM), Ubc4 (final 250 nM), and ubiquitin (final 116 μM) were mixed in ubiquitination buffer to allow charging of the E2 enzyme with activated ubiquitin. In stage three of the reaction, the RIPK2-PROTAC-VHL and UbE1-Ubc4˜Ub mixtures were combined, and incubated at room temperature for various times before being quenched with Sample Buffer containing 5% b-mercaptoethanol. Ubiquitinated RIPK2 was then separated by 4-15% SDS-PAGE and imaged using a PhosphoImager Screen overnight.
# RIPK2 was labeled by autophosphorylation and then incubated with the indicated concentrations of PROTAC and the reconstituted ubiquitination cascade. Samples were quenched 15 min after initiation of the reaction, and imaged by PAGE and autoradiography. RIPK2-Ubn is indicated.
# Sequence of VHL (P40337 whole entry, species assumed): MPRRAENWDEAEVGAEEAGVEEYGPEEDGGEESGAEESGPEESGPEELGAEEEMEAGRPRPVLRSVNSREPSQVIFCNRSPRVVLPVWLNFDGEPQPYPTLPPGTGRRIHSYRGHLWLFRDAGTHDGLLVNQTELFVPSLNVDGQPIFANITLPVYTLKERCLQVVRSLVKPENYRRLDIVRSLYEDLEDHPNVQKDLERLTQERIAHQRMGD
# Sequence of VHL (Q15370 whole entry partner, species assumed): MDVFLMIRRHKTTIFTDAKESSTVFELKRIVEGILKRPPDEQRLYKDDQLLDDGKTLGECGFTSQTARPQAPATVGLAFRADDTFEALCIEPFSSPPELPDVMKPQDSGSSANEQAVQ
# Sequence of VHL (Q15369 whole entry partner, species assumed): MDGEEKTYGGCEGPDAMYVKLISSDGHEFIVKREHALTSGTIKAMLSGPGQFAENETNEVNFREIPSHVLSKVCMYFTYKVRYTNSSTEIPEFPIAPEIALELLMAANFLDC
# Sequence of RIPK2 (O43353 whole entry, species assumed): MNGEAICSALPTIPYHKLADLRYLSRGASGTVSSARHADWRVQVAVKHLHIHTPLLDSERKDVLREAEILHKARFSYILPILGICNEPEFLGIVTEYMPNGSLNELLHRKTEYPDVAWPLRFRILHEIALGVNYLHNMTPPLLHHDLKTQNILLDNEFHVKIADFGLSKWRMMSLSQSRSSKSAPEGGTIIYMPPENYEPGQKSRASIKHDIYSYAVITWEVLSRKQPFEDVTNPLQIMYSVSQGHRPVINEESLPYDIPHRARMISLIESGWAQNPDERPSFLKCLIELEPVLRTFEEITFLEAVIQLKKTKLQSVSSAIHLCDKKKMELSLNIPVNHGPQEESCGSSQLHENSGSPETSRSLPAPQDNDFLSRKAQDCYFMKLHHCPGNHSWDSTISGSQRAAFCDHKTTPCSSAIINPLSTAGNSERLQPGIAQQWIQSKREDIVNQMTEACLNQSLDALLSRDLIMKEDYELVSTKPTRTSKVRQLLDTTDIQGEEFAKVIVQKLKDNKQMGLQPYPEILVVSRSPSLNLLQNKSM
# Sequence of RIPK2 (P40337 whole entry, species assumed, further chain): as the sequence (P40337 whole entry, species assumed) above
# Sequence of RIPK2 (Q15370 whole entry partner, species assumed): as the sequence (Q15370 whole entry partner, species assumed) above
# Sequence of RIPK2 (Q15369 whole entry partner, species assumed): as the sequence (Q15369 whole entry partner, species assumed) above
# Sequence of RIPK2 (Q13617 whole entry partner, species assumed): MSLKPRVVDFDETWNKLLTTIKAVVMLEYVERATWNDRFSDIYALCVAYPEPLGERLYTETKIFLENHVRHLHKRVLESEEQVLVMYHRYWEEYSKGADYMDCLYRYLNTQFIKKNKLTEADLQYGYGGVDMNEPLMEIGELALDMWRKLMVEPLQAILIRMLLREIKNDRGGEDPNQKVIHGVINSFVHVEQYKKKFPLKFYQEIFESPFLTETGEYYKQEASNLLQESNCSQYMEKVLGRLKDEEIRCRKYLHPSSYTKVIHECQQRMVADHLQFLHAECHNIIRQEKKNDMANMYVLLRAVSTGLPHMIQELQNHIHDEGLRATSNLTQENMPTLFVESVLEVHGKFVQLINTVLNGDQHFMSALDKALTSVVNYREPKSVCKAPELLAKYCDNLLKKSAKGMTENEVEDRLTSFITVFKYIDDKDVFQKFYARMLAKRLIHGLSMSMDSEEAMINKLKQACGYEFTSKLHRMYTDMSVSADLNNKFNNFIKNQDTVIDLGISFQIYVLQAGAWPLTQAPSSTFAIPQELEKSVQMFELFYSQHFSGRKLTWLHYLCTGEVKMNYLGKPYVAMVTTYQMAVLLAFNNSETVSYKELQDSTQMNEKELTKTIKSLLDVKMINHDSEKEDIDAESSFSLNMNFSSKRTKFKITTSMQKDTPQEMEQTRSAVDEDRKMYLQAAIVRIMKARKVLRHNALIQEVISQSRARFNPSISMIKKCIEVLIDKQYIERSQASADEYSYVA
# Sequence of RIPK2 (P62877 whole entry partner, species assumed): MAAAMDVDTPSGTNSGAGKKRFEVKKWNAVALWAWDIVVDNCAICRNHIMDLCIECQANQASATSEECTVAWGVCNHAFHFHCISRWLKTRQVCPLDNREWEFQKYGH
smiles,measurement,setting,value
COc1cc(/C=C2\SC(=O)NC2=O)ccc1Oc1ccc(C#N)cc1C(F)(F)F,effect on the degradation of estrogen related receptor alpha (ERRα),[1],lack of effect
COc1cc(/C=C2\SC(=O)N(CCOCCC(=O)N[C@H](C(=O)N3C[C@H](O)C[C@H]3C(=O)NCc3ccc(-c4scnc4C)cc3)C(C)(C)C)C2=O)ccc1Oc1ccccc1C(F)(F)F [ARV N000414],Dmax,[2],98%
COc1cc(/C=C2\SC(=O)N(CCOCCC(=O)N[C@H](C(=O)N3C[C@@H](O)C[C@H]3C(=O)NCc3ccc(-c4scnc4C)cc3)C(C)(C)C)C2=O)ccc1Oc1ccc(C#N)cc1C(F)(F)F [PROTAC_ERRα_epi],VHL binding,[3],abolishes VHL binding
Cc1ncsc1-c1ccc(CNC(=O)[C@@H]2C[C@@H](O)CN2C(=O)[C@@H](NC(=O)COCCOCCOCCOCCOc2cc3nccc(Nc4ccc5scnc5c4)c3cc2S(=O)(=O)C(C)(C)C)C(C)(C)C)cc1 [PROTAC_RIPK2],cell viability (toxicity to cells),[4],not toxic
same,direct RIPK2 ubiquitination in vitro,[5],mediates direct RIPK2 ubiquitination
